Test results as given in patent publication US20050256085A1, “Fungicidal mixtures” (priority 2002, published 2005).
Like-named read-outs stand apart in the source and are kept apart here.

Columns and labels:
Phytophthora infestans = type: in vivo; conditions: tomato leaves, infected next day, assessed after 6 days
Plasmopara viticola = assay: Persistency against Peronospora of grapevines caused by Plasmopara viticola; type: in vivo; conditions: grapevine leaves, inoculated 3 days after spraying

N#Cc1sc2c(=O)c3ccccc3c(=O)c=2sc1C#N [II, dithianon]
Efficacy in % of the untreated control (Phytophthora infestans; 1.9 ppm in the spray liquor): 0% | Efficacy in % of the untreated control (Phytophthora infestans; 3.75 ppm in the spray liquor): 0% | Efficacy in % of the untreated control (Phytophthora infestans; 7.5 ppm in the spray liquor): 0% | Efficacy in % of the untreated control (Plasmopara viticola; 1.9 ppm in the spray liquor): 48% | Efficacy in % of the untreated control (Plasmopara viticola; 3.75 ppm in the spray liquor): 58%

CC(C)OC(=O)N[C@H](C(=O)N[C@H](C)c1nc2ccc(F)cc2s1)C(C)C [Ia]
Efficacy in % of the untreated control (Phytophthora infestans; 0.19 ppm in the spray liquor): 56% | Efficacy in % of the untreated control (Phytophthora infestans; 0.375 ppm in the spray liquor): 67% | Efficacy in % of the untreated control (Phytophthora infestans; 0.75 ppm in the spray liquor): 78% | Efficacy in % of the untreated control (Phytophthora infestans; 1.5 ppm in the spray liquor): 83% | Efficacy in % of the untreated control (Phytophthora infestans; 3 ppm in the spray liquor): 89% | Efficacy in % of the untreated control (Plasmopara viticola; 0.19 ppm in the spray liquor): 48% | Efficacy in % of the untreated control (Plasmopara viticola; 0.375 ppm in the spray liquor): 58% | Efficacy in % of the untreated control (Plasmopara viticola; 1.5 ppm in the spray liquor): 79% | Efficacy in % of the untreated control (Plasmopara viticola; 3 ppm in the spray liquor): 84%
